# Test results from patent US20230074545A1, “TREATMENT OF CANCER WITH CDK12/13 INHIBITORS” (Kinnate Biopharma Inc., priority 2019, published 2023).
# Tests used:
# Assay in all cases: Radiometric kinase panel
# Assay type in all cases: biochemical
# [1] = target: T1, ACVR1B (Homo sapiens, UniProt P36896)
# T1 construct: purchased ProQinase GmbH (Reaction Biology); host or cells: Sf9 insect cells or E. coli (not specified per kinase)
# Experimental: (§1) The compounds 1-5 (see Table 1) were assayed for kinase activity at ProQinase (ProQinase GmbH, Reaction Biology; Freiburg, Germany) using their commercially available radiometric kinase assay services. Briefly, the compounds were provided as solids and were dissolved to 1×10^−03 M/100% DMSO stock solutions on the day of assay. All protein kinases were provided by ProQinase and were expressed in Sf9 insect cells or in E. coli as recombinant GST-fusion proteins or His-tagged proteins, either as full-length or enzymatically active fragments. All kinases were produced from human cDNAs and purified by either GSH-affinity chromatography or immobilized metal. The purity of the protein kinases was examined by SDS-PAGE/Coomassie staining, the identity was checked by mass spectroscopy. A radiometric protein kinase assay (^33PanQinase® Activity Assay) was used for measuring the kinase activity of the protein kinase. All kinase assays were performed in 96-well FlashPlates™ from PerkinElmer (Boston, Mass., USA) in a 50 microliter reaction volume. The reaction cocktail was pipetted in four steps in the following order: 1) 25 microliter of assay buffer (standard buffer/[gamma-^33P]-ATP); 2) 10 microliter of ATP solution (in H2O); 3) 5 microliter of test compound (in 10% DMSO); 4) 10 microliter of enzyme/substrate mixture.
# (§2) Compound 4 was analyzed for selectivity against a panel of other kinases at ProQinase using their commercially available radiometric kinase assay services and the methods described in Example 1.
# [2] = target: T2, ERBB4 (Homo sapiens, UniProt Q15303)
# T2 construct: either as full-length or enzymatically active fragments; purchased ProQinase GmbH (Reaction Biology); host or cells: Sf9 insect cells or E. coli (not specified per kinase)
# Experimental: as §1, §2
# [3] = target: T3, RPS6KA2 (Homo sapiens, UniProt Q15349)
# T3 construct: either as full-length or enzymatically active fragments; purchased ProQinase GmbH (Reaction Biology); host or cells: Sf9 insect cells or E. coli
# Experimental: as §1, §2
# [4] = target: T4, CK1gamma2 (Homo sapiens, UniProt P78368)
# T4 construct: purchased ProQinase GmbH (Reaction Biology)
# Experimental: as §1, §2
# [5] = target: T5, EPHB1 (Homo sapiens, UniProt P54762)
# T5 construct: either as full-length or enzymatically active fragments; purchased ProQinase GmbH (Reaction Biology)
# Experimental: as §1, §2
# [6] = target: T6, ROCK2 (Homo sapiens, UniProt O75116)
# T6 construct: either as full-length or enzymatically active fragments; purchased ProQinase GmbH (Reaction Biology)
# Experimental: as §1, §2
# [7] = target: T7, TSK2 (Homo sapiens, UniProt Q96PF2)
# T7 construct: purchased ProQinase GmbH (Reaction Biology)
# Experimental: as §1, §2
# [8] = target: T8, MEK5 (Homo sapiens, UniProt Q13163)
# T8 construct: either as full-length or enzymatically active fragments; purchased ProQinase GmbH (Reaction Biology)
# T8 sequence (Q13163 whole entry, the tested form may be a part): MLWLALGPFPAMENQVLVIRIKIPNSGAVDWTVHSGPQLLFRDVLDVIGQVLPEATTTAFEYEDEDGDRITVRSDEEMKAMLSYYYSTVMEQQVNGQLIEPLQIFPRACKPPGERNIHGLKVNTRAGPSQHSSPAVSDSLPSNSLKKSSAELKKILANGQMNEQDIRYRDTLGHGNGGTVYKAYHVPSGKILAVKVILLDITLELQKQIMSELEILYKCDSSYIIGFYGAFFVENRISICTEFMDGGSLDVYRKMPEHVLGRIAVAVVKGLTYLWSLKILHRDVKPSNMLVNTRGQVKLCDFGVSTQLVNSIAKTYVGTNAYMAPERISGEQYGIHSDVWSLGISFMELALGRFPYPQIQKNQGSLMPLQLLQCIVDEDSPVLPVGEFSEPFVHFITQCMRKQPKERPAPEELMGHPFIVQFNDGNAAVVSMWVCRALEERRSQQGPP
# Experimental: as §1, §2
# [9] = target: T9, RET (Homo sapiens, UniProt P07949)
# T9 construct: either as full-length or enzymatically active fragments; purchased ProQinase GmbH (Reaction Biology)
# Experimental: as §1, §2
# [10] = target: T10, CAMK2G (Homo sapiens, UniProt Q13555)
# T10 construct: either as full-length or enzymatically active fragments; purchased ProQinase GmbH (Reaction Biology)
# Experimental: as §1, §2
# [11] = target: T11, CDK2/CycD1 (Homo sapiens, UniProt P24941)
# T11 construct: either as full-length or enzymatically active fragments; purchased ProQinase GmbH (Reaction Biology)
# Experimental: as §1, §2
# [12] = target: T12, BRK (Homo sapiens, UniProt Q13882)
# T12 construct: purchased ProQinase GmbH (Reaction Biology); host or cells: Sf9 insect cells or E. coli (not specified per kinase)
# T12 sequence (Q13882 whole entry): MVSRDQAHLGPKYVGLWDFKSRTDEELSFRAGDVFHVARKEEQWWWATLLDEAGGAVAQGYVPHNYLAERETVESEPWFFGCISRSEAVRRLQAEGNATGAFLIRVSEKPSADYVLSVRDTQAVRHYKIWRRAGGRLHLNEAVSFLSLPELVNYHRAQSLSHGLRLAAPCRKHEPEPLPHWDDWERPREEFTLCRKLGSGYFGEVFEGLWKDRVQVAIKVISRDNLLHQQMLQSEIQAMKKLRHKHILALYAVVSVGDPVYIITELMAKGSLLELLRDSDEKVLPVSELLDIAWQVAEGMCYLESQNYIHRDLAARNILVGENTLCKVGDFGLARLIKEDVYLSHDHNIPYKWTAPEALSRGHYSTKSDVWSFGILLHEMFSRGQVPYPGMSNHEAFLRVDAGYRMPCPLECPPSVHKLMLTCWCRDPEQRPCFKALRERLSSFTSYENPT
# Experimental: as §1, §2
# [13] = target: T13, PKCdelta (Homo sapiens, UniProt Q05655)
# T13 construct: purchased ProQinase GmbH (Reaction Biology)
# T13 sequence (Q05655 whole entry): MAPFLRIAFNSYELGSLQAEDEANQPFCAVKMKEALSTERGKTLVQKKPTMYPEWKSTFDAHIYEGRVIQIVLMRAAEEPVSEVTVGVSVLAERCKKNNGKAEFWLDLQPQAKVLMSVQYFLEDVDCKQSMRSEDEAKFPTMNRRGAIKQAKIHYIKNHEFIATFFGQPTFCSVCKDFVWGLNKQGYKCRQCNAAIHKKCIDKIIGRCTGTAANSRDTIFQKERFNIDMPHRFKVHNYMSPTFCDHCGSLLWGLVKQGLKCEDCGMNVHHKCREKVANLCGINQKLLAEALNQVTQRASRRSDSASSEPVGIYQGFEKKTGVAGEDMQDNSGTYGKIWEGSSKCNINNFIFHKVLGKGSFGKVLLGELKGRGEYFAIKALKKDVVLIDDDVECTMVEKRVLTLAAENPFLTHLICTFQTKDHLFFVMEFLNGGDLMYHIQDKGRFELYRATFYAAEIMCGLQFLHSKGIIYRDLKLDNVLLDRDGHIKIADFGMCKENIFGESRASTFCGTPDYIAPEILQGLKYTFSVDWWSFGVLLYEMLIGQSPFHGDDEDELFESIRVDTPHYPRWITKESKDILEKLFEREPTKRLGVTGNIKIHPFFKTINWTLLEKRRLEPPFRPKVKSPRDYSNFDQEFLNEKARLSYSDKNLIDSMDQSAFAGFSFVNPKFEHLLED
# Experimental: as §1, §2
# [14] = target: T14, MST2 (Homo sapiens, UniProt Q13188)
# T14 construct: purchased ProQinase GmbH (Reaction Biology)
# T14 sequence (Q13188 whole entry): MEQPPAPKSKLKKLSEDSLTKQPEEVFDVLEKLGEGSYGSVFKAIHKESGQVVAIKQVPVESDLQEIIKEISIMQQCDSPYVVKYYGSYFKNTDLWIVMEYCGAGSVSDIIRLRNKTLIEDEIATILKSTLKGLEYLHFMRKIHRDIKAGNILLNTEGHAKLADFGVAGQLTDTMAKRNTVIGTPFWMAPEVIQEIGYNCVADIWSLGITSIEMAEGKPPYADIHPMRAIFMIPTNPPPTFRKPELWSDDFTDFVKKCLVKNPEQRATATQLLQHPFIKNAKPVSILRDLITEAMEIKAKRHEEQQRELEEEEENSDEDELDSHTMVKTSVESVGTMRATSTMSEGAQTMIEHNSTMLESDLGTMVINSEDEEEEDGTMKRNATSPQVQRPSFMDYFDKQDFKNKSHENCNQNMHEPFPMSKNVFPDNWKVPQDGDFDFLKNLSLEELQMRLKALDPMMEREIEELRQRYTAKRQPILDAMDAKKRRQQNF
# Experimental: as §1, §2
# [15] = target: T15, DMPK (Homo sapiens, UniProt Q09013)
# T15 construct: either as full-length or enzymatically active fragments; purchased ProQinase GmbH (Reaction Biology); host or cells: Sf9 insect cells or E. coli
# T15 sequence (Q09013 whole entry, the tested form may be a part): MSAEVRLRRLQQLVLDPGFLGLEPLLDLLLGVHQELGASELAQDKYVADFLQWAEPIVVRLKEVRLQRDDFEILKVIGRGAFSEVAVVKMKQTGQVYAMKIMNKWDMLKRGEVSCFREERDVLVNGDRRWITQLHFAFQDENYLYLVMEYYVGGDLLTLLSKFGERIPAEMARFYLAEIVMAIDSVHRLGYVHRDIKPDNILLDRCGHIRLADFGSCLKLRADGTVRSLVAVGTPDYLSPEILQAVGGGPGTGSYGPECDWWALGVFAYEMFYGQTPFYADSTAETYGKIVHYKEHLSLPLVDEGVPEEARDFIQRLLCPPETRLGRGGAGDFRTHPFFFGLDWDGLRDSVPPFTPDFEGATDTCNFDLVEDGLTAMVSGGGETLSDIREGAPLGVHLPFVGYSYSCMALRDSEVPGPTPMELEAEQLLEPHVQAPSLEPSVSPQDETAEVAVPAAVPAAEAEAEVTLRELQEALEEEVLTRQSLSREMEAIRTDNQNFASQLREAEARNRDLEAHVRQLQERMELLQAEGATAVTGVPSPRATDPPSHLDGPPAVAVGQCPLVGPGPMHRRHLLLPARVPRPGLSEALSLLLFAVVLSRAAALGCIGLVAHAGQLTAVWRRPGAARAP
# Experimental: as §1, §2
# [16] = target: T16, ERK2 (Homo sapiens, UniProt P28482)
# T16 construct: either as full-length or enzymatically active fragments; purchased ProQinase GmbH (Reaction Biology); host or cells: Sf9 insect cells or E. coli (not specified per kinase)
# Experimental: as §1, §2
# [17] = target: T17, SRC (Homo sapiens, UniProt P12931)
# T17 construct: either as full-length or enzymatically active fragments; purchased ProQinase GmbH (Reaction Biology)
# Experimental: as §1, §2
# [18] = target: T18, CDK4/CycD1 (Homo sapiens, UniProt P11802)
# T18 construct: either as full-length or enzymatically active fragments; purchased ProQinase GmbH (Reaction Biology); host or cells: Sf9 insect cells or E. coli (not specified per kinase)
# Experimental: as §1, §2
# [19] = target: T19, CK1delta (Homo sapiens, UniProt P48730)
# T19 construct: either as full-length or enzymatically active fragments; purchased ProQinase GmbH (Reaction Biology)
# Experimental: as §1, §2
# [20] = target: T20, MEKK3 (Homo sapiens, UniProt Q99759)
# T20 construct: purchased ProQinase GmbH (Reaction Biology); host or cells: Sf9 insect cells or E. coli (not specified per kinase)
# Experimental: as §1, §2
# [21] = target: T21, SAK (Homo sapiens, UniProt O00444)
# T21 construct: either as full-length or enzymatically active fragments; purchased ProQinase GmbH (Reaction Biology)
# Experimental: as §1, §2
# [22] = target: T22, p38alpha (Homo sapiens, UniProt Q16539)
# T22 construct: either as full-length or enzymatically active fragments; purchased ProQinase GmbH (Reaction Biology)
# Experimental: as §1, §2
# [23] = target: T23, DYRK3 (Homo sapiens, UniProt O43781)
# T23 construct: either as full-length or enzymatically active fragments; purchased ProQinase GmbH (Reaction Biology)
# Experimental: as §1, §2
# [24] = target: T24, CDK1/CycE1 (Homo sapiens, UniProt P06493)
# T24 construct: either as full-length or enzymatically active fragments; purchased ProQinase GmbH (Reaction Biology); host or cells: Sf9 insect cells or E. coli
# Experimental: as §1, §2
# [25] = target: T25, TLK1 (Homo sapiens, UniProt Q9UKI8)
# T25 construct: purchased ProQinase GmbH (Reaction Biology)
# T25 sequence (Q9UKI8 whole entry): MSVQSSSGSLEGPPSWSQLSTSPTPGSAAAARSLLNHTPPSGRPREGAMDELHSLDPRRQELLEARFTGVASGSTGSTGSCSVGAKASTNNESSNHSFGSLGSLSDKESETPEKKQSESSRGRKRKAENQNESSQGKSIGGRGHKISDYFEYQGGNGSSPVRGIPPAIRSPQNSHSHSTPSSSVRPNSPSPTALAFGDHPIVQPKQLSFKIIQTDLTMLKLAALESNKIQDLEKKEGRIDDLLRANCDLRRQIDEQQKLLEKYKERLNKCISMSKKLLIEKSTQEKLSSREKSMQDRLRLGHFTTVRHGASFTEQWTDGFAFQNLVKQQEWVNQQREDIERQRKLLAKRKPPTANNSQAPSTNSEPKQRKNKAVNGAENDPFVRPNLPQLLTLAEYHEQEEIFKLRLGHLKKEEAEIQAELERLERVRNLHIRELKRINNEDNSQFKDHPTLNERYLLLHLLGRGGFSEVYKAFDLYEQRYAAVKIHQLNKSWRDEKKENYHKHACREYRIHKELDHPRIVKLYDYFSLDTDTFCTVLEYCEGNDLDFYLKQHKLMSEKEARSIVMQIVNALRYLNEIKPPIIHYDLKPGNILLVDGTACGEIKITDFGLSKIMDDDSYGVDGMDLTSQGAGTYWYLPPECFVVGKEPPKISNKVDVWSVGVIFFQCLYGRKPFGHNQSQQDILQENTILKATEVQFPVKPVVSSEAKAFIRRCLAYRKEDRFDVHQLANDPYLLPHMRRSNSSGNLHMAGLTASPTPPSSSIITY
# Experimental: as §1, §2
# [26] = target: T26, MKK7 (Homo sapiens, UniProt O14733)
# T26 construct: either as full-length or enzymatically active fragments; purchased ProQinase GmbH (Reaction Biology); host or cells: Sf9 insect cells or E. coli (not specified per kinase)
# T26 sequence (O14733 whole entry, the tested form may be a part): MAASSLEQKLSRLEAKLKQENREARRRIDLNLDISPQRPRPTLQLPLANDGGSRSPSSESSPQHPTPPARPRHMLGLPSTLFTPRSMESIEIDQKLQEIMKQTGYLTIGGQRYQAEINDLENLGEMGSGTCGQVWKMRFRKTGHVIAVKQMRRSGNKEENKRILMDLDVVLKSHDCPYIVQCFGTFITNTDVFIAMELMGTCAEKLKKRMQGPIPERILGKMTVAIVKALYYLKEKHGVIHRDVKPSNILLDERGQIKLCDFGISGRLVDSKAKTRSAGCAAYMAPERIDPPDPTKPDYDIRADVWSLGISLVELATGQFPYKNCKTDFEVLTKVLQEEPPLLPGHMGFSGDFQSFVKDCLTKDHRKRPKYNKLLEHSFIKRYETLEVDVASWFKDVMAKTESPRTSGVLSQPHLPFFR
# Experimental: as §1, §2
# [27] = target: T27, BTK (Homo sapiens, UniProt Q06187)
# T27 construct: purchased ProQinase GmbH (Reaction Biology); host or cells: Sf9 insect cells or E. coli (not specified per kinase)
# Experimental: as §1, §2
# [28] = target: T28, EPHA2 (Homo sapiens, UniProt P29317)
# T28 construct: either as full-length or enzymatically active fragments; purchased ProQinase GmbH (Reaction Biology)
# Experimental: as §1, §2
# [29] = target: T29, NLK (Homo sapiens, UniProt Q9UBE8)
# T29 construct: either as full-length or enzymatically active fragments; purchased ProQinase GmbH (Reaction Biology)
# Experimental: as §1, §2
# [30] = target: T30, PHKG2 (Homo sapiens, UniProt P15735)
# T30 construct: either as full-length or enzymatically active fragments; purchased ProQinase GmbH (Reaction Biology)
# Experimental: as §1, §2
# [31] = target: T31, CDK17/p35NCK (Homo sapiens, UniProt Q00537)
# T31 construct: either as full-length or enzymatically active fragments; purchased ProQinase GmbH (Reaction Biology); host or cells: Sf9 insect cells or E. coli
# T31 sequence (Q00537 whole entry, the tested form may be a part): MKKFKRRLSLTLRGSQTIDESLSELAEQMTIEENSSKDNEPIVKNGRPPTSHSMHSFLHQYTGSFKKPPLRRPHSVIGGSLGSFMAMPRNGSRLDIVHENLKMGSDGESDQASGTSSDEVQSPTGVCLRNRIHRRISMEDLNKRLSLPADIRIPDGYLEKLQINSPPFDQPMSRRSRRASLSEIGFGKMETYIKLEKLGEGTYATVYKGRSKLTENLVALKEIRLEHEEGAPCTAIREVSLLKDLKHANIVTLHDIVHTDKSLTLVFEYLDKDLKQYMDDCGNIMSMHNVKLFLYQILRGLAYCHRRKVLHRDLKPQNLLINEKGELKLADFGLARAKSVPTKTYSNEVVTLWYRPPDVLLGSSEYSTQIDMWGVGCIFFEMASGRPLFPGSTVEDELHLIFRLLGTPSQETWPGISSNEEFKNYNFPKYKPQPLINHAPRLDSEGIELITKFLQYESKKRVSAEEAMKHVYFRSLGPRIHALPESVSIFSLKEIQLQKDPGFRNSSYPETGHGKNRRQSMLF
# T31 sequence (Q15078 whole entry partner, the tested form may be a part): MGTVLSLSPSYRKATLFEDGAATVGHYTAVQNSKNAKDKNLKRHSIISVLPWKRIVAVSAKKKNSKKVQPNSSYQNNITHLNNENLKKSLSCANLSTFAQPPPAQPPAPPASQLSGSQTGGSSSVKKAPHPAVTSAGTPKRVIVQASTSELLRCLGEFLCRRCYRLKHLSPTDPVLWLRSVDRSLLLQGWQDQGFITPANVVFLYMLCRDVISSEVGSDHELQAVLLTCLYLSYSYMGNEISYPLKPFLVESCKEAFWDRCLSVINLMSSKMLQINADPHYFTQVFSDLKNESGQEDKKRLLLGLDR
# Experimental: as §1, §2
compound,measurement,setting,value
"C=CC(=O)Nc1ccc(C(=O)N2CC[C@@H](Nc3ncc(C#N)cn3)C2)cc1 [Compound 4, (R)-N-(4-(3-((5-cyanopyrimidin-2-yl)amino)pyrrolidine-1-carbonyl)phenyl)acrylamide]",inhibition at 1 µM,[1],1%
same,inhibition at 1 µM,[2],9%
same,inhibition at 1 µM,[3],12%
same,inhibition at 1 µM,[4],-1%
same,inhibition at 1 µM,[5],-3%
same,inhibition at 1 µM,[6],19%
same,inhibition at 1 µM,[7],-1%
same,inhibition at 1 µM,[8],23%
same,inhibition at 1 µM,[9],5%
same,inhibition at 1 µM,[10],5%
same,inhibition at 1 µM,[11],18%
same,inhibition at 1 µM,[12],1%
same,inhibition at 1 µM,[13],-2%
same,inhibition at 1 µM,[14],0%
same,inhibition at 1 µM,[15],11%
same,inhibition at 1 µM,[16],9%
same,inhibition at 1 µM,[17],-5%
same,inhibition at 1 µM,[18],9%
same,inhibition at 1 µM,[19],-7%
same,inhibition at 1 µM,[20],1%
same,inhibition at 1 µM,[21],-11%
same,inhibition at 1 µM,[22],3%
same,inhibition at 1 µM,[23],-3%
same,inhibition at 1 µM,[24],11%
same,inhibition at 1 µM,[25],-1%
same,inhibition at 1 µM,[26],11%
same,inhibition at 1 µM,[27],1%
same,inhibition at 1 µM,[28],-5%
same,inhibition at 1 µM,[29],4%
same,inhibition at 1 µM,[30],2%
same,inhibition at 1 µM,[31],12%
